Reference: the NIST ThermoML archive (doi:10.1021/acs.jced.6b00269)

Details: for viscosity / mass density: 101.33 kPa, Liquid; for viscosity: Cone and plate viscometry; for mass density: Vibrating tube method; for Normal melting temperature: Crystal, DTA; for Glass transition temperature: DSC

CCCCCCCCCC[P+](CC)(CC)CC.O=[N+]([O-])c1cn[n-]c1 [decyltriethylphosphonium 4-nitropyrazolide]
Details | Glass transition temperature [°C] | Normal melting temperature [°C] | mass density [kg/m3] | viscosity [mPa·s]
– | -71 | 11 | – | –
278.15 K | – | – | – | 1620
283.15 K | – | – | 1020 | 1030
288.15 K | – | – | 1017 | 678
293.15 K | – | – | 1013.9 | 461
295.15 K | – | – | 1012.7 | –
298.15 K | – | – | 1010.9 | 325
303.15 K | – | – | 1007.9 | 236
308.15 K | – | – | 1004.9 | 175
313.15 K | – | – | 1002 | 133
318.15 K | – | – | 999.1 | 104
323.15 K | – | – | 996.2 | 82
328.15 K | – | – | 993.3 | 66
333.15 K | – | – | 990.4 | 54
338.15 K | – | – | 987.5 | –
343.15 K | – | – | 984.6 | –
348.15 K | – | – | 981.7 | –
353.15 K | – | – | 978.8 | –

CCCCCCCCCCCCCC[P+](CCCCCC)(CCCCCC)CCCCCC.Cc1ncc([N+](=O)[O-])[n-]1 [trihexyl(tetradecyl)phosphonium 2-methyl-5-nitroimidazolide]
Details | Glass transition temperature [°C] | mass density [kg/m3] | viscosity [mPa·s]
– | -79 | – | –
278.15 K | – | – | 5890
283.15 K | – | 948.1 | 3730
288.15 K | – | 945.1 | 2420
293.15 K | – | 941.9 | 1620
295.15 K | – | 940.6 | –
298.15 K | – | 938.7 | 1110
303.15 K | – | 935.7 | 786
308.15 K | – | 932.8 | 569
313.15 K | – | 929.8 | 420
318.15 K | – | 926.9 | 317
323.15 K | – | 924 | 244
328.15 K | – | 921.1 | 192
333.15 K | – | 918.2 | 153
338.15 K | – | 915.3 | 125
343.15 K | – | 912.5 | –
348.15 K | – | 909.6 | –
353.15 K | – | 906.8 | –

CCCC[S+]1CCCCC1.O=S(=O)([N-]S(=O)(=O)C(F)(F)F)C(F)(F)F [1-butylthianium bis(trifluoromethylsulfonyl)imide]
Details | Glass transition temperature [°C] | Normal melting temperature [°C] | viscosity [mPa·s]
– | -82 | -10 | –
278.15 K | – | – | 398
283.15 K | – | – | 279
288.15 K | – | – | 200
293.15 K | – | – | 148
298.15 K | – | – | 112
303.15 K | – | – | 88
308.15 K | – | – | 70
313.15 K | – | – | 57

CCC[n+]1ccn(C)c1C.O=[N+]([O-])c1cn[n-]c1 [1,2-dimethyl-3-propylimidazolium 4-nitropyrazolide]
Details | Glass transition temperature [°C] | mass density [kg/m3] | viscosity [mPa·s]
– | -50 | – | –
278.15 K | – | – | 9610
283.15 K | – | 1193 | 4500
288.15 K | – | 1189.4 | 2270
293.15 K | – | 1185.6 | 1240
295.15 K | – | 1184.3 | –
298.15 K | – | 1182.2 | 722
303.15 K | – | 1178.9 | 447
308.15 K | – | 1175.5 | 294
313.15 K | – | 1172.2 | 200
318.15 K | – | 1168.9 | 143
323.15 K | – | 1165.7 | 106
328.15 K | – | 1162.5 | 81
333.15 K | – | 1159.3 | 65
338.15 K | – | 1156.1 | 53
343.15 K | – | 1152.8 | –
348.15 K | – | 1149.6 | –
353.15 K | – | 1146.4 | –

CCCC[P+](CC)(CC)CC.Cc1ncc([N+](=O)[O-])[n-]1 [butyltriethylphosphonium 2-methyl-5-nitroimidazolide]
Details | Glass transition temperature [°C] | Normal melting temperature [°C] | mass density [kg/m3] | viscosity [mPa·s]
– | -71 | 17 | – | –
278.15 K | – | – | – | 2180
283.15 K | – | – | 1074.4 | 1350
288.15 K | – | – | 1071.3 | 858
293.15 K | – | – | 1068.3 | 569
295.15 K | – | – | 1067.1 | –
298.15 K | – | – | 1065.3 | 391
303.15 K | – | – | 1062.3 | 277
308.15 K | – | – | 1059.3 | 202
313.15 K | – | – | 1056.5 | 150
318.15 K | – | – | 1053.6 | 115
323.15 K | – | – | 1050.7 | 90
328.15 K | – | – | 1047.8 | 72
333.15 K | – | – | 1044.9 | 58
338.15 K | – | – | 1042.1 | –
343.15 K | – | – | 1039.2 | –
348.15 K | – | – | 1036.4 | –
353.15 K | – | – | 1033.5 | –

CCCCCCCCCCCCCC[P+](CCCCCC)(CCCCCC)CCCCCC.O=[N+]([O-])c1cn[n-]c1 [trihexyl(tetradecyl)phosphonium 4-nitropyrazolide]
Details | Glass transition temperature [°C] | mass density [kg/m3] | viscosity [mPa·s]
– | -75 | – | –
278.15 K | – | – | 3560
283.15 K | – | 948.8 | 2290
288.15 K | – | 945.6 | 1500
293.15 K | – | 942.3 | 1020
295.15 K | – | 941.1 | –
298.15 K | – | 939.3 | 710
303.15 K | – | 936.4 | 510
308.15 K | – | 933.4 | 375
313.15 K | – | 930.4 | 280
318.15 K | – | 927.4 | 214
323.15 K | – | 924.5 | 167
328.15 K | – | 921.6 | 133
333.15 K | – | 918.7 | 108
338.15 K | – | 915.8 | 88
343.15 K | – | 912.8 | 74
348.15 K | – | 909.9 | –
353.15 K | – | 907 | –

CC[P+](CC)(CC)C1CCCC1.O=[N+]([O-])c1cn[n-]c1 [cyclopentyltriethylphosphonium 4-nitropyrazolide]
Details | Normal melting temperature [°C]
– | 51
